The values below come from PMC3469775 (Journal of medicinal chemistry, 2012).

This assay addresses T1, human placental aromatase (Homo sapiens, UniProt P11511).
T1 sequence (P11511 1-503): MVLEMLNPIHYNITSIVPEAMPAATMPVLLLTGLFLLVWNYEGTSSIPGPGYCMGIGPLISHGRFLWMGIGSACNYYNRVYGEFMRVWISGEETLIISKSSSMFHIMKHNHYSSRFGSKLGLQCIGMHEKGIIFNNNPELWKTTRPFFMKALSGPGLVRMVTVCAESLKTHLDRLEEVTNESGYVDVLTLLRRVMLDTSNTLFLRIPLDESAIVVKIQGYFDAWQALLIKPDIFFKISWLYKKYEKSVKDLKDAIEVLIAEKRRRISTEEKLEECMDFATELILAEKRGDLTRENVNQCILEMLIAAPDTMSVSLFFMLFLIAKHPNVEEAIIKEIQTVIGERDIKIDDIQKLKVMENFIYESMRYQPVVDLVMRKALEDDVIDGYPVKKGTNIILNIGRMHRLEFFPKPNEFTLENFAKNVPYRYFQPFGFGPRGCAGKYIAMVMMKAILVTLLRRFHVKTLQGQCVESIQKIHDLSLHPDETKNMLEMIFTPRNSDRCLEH
In words: Inhibition of purified human placental aromatase. Format: biochemical. The note with it: for fold less potent than the AIs (IC50): compared with the AIs; for IC50 (in words): purified placental aromatase.

Molecules are shown by their SMILES.

As for `CO[C@@H]1C[C@@H]2[C@H](CC[C@]3(C)C(=O)CC[C@@H]23)[C@@]2(C)C=CC(=O)C=C12` [Compound 2, (6R,8R,9S,10R,13S,14S)-6-Methoxy-10,13-dimethyl-7,8,9,10,11,12,13,14,15,16-decahydro-3H-cyclopenta[a]-phenanthrene-3,17(6H)-dione], the “fold less potent than the AIs (IC50)” value was “about 1000 fold” and the “IC50 (in words)” value is recorded as “several micromolar”.
The like results for `CCO[C@@H]1C[C@@H]2[C@H](CC[C@]3(C)C(=O)CC[C@@H]23)[C@@]2(C)C=CC(=O)C=C12` [Compound 3, (6R,8R,9S,10R,13S,14S)-6-Ethoxy-10,13-dimethyl-7,8,9,10,11,12,13,14,15,16-decahydro-3H-cyclopenta[a]-phenanthrene-3,17(6H)-dione] were, in that order, “about 1000 fold” and “several micromolar”.
A word on the inhibition: it is the relative decrease from the control value, in per cent. `CC#CCO[C@@H]1C[C@@H]2[C@H](CC[C@]3(C)C(=O)CC[C@@H]23)[C@@]2(C)C=CC(=O)C=C12` [Compound 4, (6R,8R,9S,10R,13S,14S)-6-(But-2-ynyloxy)-10,13-dimethyl-7,8,9,10,11,12,13,14,15,16-decahydro-3H-cyclopenta[a]-phenanthrene-3,17(6H)-dione]: for the setting “read-out: inhibition of the enzyme activity”, the inhibition at 300 µM amounted to 93%.
